In patent US11919883B2, “Metalloenzyme inhibitor compounds” (Ji Xing Pharmaceuticals Hong Kong Limited, priority 2016, dated 2024):

Key:
[1] = biological target: T1, recombinant human CYP11B1 (Homo sapiens, UniProt P15538); assay: CYP11B1 enzyme assay, enzyme enriched microsomes from V79-4 cells, cortisol by LC-MS; type: biochemical; conditions: IC50 ranges; run at Km of 11-deoxycortisol; read-out: hCYP11B1 IC50
T1 construct: made in house; host or cells: V79-4 cells (enzyme enriched microsomal fraction of cell lysates)
T1 sequence (P15538 25-503): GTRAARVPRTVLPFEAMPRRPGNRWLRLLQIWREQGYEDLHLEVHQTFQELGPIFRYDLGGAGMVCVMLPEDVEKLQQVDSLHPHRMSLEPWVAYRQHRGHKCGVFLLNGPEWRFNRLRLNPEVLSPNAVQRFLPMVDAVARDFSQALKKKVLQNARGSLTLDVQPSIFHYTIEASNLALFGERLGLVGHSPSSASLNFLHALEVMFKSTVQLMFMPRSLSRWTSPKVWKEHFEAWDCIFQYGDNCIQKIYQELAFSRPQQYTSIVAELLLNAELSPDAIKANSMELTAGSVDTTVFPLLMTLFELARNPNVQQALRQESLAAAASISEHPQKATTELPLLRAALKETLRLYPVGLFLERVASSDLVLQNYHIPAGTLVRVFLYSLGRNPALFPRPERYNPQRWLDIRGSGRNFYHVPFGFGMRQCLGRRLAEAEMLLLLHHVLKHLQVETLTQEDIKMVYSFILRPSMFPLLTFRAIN
Description: (§1) An enzyme enriched microsomal fraction was prepared from cellular lysates and subsequently used as the enzyme source for determining inhibitor IC50s. […] Enzyme assays for inhibitor screening employed CYP11B2 and CYP11B1 enzyme enriched microsomes and were run at the Km of the respective substrates. Products of the enzyme reactions, aldosterone for CYP11B2 or cortisol for CYP11B1, were measured by LC-MS. Assays were run under conditions of less than 20% substrate turnover. Inhibitor IC50s were generated by determining the product formation in the absence or presence of inhibitor at various concentrations. In the absence of the test compound, the product formed (Pt) in each data set was defined as 100% activity. In the absence of enzyme, the product formed (Pb) in each data set was defined as 0% activity. The percent activity in the presence of each inhibitor was calculated according to the following equation: % activity=(P−Pb)/(Pt−Pb), where P=the product formed in the presence of the inhibitor.

[2] = biological target: T2, recombinant human CYP11B2 (Homo sapiens, UniProt P19099); assay: CYP11B2 enzyme assay, enzyme enriched microsomes from V79-4 cells, aldosterone by LC-MS; type: biochemical; conditions: IC50 ranges; run at Km of 11-deoxycorticosterone; read-out: hCYP11B2 IC50
T2 construct: made in house; host or cells: V79-4 cells (enzyme enriched microsomal fraction of cell lysates)
T2 sequence (P19099 25-503): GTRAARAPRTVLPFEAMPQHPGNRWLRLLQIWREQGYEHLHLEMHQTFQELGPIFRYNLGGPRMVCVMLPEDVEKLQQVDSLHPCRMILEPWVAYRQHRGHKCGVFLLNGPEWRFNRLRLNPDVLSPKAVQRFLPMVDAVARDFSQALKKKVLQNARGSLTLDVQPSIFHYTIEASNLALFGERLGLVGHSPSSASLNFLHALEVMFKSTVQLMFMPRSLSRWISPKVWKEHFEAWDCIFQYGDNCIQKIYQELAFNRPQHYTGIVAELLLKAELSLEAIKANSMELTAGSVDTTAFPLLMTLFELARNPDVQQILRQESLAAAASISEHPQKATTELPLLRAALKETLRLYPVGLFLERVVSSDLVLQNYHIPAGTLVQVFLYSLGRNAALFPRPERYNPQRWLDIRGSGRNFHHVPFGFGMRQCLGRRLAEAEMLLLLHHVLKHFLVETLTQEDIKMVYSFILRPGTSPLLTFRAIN
Description: as §1

SMILES | IC50 [1] | IC50 [2]
CCn1c(-c2cncnc2)cc2ccc(Cl)cc21 [Example 47, 6-Chloro-1-ethyl-2-(pyrimidin-5-yl)-1H-indole] | 100 to 1000 nM | 1 to 100 nM
FC(F)c1ncncc1-c1nc2ccc(Cl)cc2n1C1CC1 [Example 50, 6-Chloro-1-cyclopropyl-2-(4-(difluoromethyl)pyrimidin-5-yl)-1H-benzo[d]imidazole] | 1000 to 10000 nM | 1 to 100 nM
CNc1ncncc1-c1nc2cc(F)c(F)cc2n1C1CC1 [Example 31, 5-(1-Cyclopropyl-5,6-difluoro-1H-benzo[d]imidazol-2-yl)-N-methylpyrimidin-4-amine] | 100 to 1000 nM | 1 to 100 nM
COc1ccc2nc(-c3cncnc3C)n(C3CC3)c2n1 [Example 58, 3-Cyclopropyl-5-methoxy-2-(4-methylpyrimidin-5-yl)-3H-imidazo[4,5-b]pyridine] | > 10000 nM | 100 to 1000 nM
N#Cc1ccc2nc(-c3cncnc3C(F)(F)F)n(C3CC3)c2n1 [Example 65, 3-Cyclopropyl-2-(4-(trifluoromethyl)pyrimidin-5-yl)-3H-imidazo[4,5-b]pyridine-5-carbonitrile] | 1000 to 10000 nM | 1 to 100 nM
CCn1c(-c2cncnc2C(F)F)nc2ccc(C#N)cc21 [Example 51, 2-(4-(Difluoromethyl)pyrimidin-5-yl)-1-ethyl-1H-benzo[d]imidazole-6-carbonitrile] | > 10000 nM | 1 to 100 nM
CCn1c(-c2cncnc2C)nc2ccc(C#N)cc21 [Example 18, 1-Ethyl-2-(4-methylpyrimidin-5-yl)-1H-benzo[d]imidazole-6-carbonitrile] | 1000 to 10000 nM | 1 to 100 nM
Fc1ccc2nc(-c3cncnc3C(F)F)n(C3CC3)c2c1 [Example 15, 1-Cyclopropyl-2-(4-(difluoromethyl)pyrimidin-5-yl)-6-fluoro-1H-benzo[d]imidazole] | 1000 to 10000 nM | 1 to 100 nM
Fc1cc2nc(-c3cncnc3)n(C3CC3)c2cc1F [Example 7, 1-Cyclopropyl-5,6-difluoro-2-(pyrimidin-5-yl)-1H-benzo[d]imidazole] | 1000 to 10000 nM | 1 to 100 nM
CC(C)c1ncncc1-c1nc2ccc(C#N)cc2n1C1CC1 [Example 28, 1-Cyclopropyl-2-(4-isopropylpyrimidin-5-yl)-1H-benzo[d]imidazole-6-carbonitrile] | 1000 to 10000 nM | 1 to 100 nM
Fc1cc2nc(-c3cncnc3NCCC(F)(F)F)n(C3CC3)c2cc1F [Example 37, 5-(1-Cyclopropyl-5,6-difluoro-1H-benzo[d]imidazol-2-yl)-N-(3,3,3-trifluoropropyl)pyrimidin-4-amine] | 100 to 1000 nM | 1 to 100 nM
CCn1c(-c2cncnc2C(F)(F)F)nc2ccc(C#N)nc21 [Example 69, 3-ethyl-2-(4-(trifluoromethyl)pyrimidin-5-yl)-3H-imidazo[4,5-b]pyridine-5-carbonitrile] | > 10000 nM | 100 to 1000 nM
N#Cc1ccc2nc(-c3cncnc3C(F)(F)F)n(C3CC3)c2c1 [Example 60, 1-Cyclopropyl-2-(4-(trifluoromethyl)pyrimidin-5-yl)-1H-benzo[d]imidazole-6-carbonitrile] | 1000 to 10000 nM | 1 to 100 nM
CCc1ncncc1-c1nc2ccc(Cl)cc2n1C1CC1 [Example 11, 6-Chloro-1-cyclopropyl-2-(4-ethylpyrimidin-5-yl)-1H-benzo[d]imidazole] | 1000 to 10000 nM | 1 to 100 nM
Clc1ccc2nc(-c3cncnc3)n(C3CC3)c2c1 [Example 23, 6-Chloro-1-cyclopropyl-2-(pyrimidin-5-yl)-1H-benzo[d]imidazole] | 1000 to 10000 nM | 1 to 100 nM
CC(C)(O)c1ncncc1-c1nc2ccc(C#N)cc2n1C1CC1 [Example 73, 1-Cyclopropyl-2-(4-(2-hydroxypropan-2-yl)pyrimidin-5-yl)-1H-benzo[d]imidazole-6-carbonitrile] | > 10000 nM | 100 to 1000 nM
COCCNc1ncncc1-c1nc2cc(F)c(F)cc2n1C1CC1 [Example 33, 5-(1-Cyclopropyl-5,6-difluoro-1H-benzo[d]imidazol-2-yl)-N-(2-methoxyethyl)pyrimidin-4-amine] | 1000 to 10000 nM | 1 to 100 nM
Cc1ncncc1-c1nc2cnc(Cl)cc2n1C1CC1 [Example 55, 6-Chloro-1-cyclopropyl-2-(4-methylpyrimidin-5-yl)-1H-imidazo[4,5-c]pyridine] | > 10000 nM | 100 to 1000 nM
Fc1ccc2nc(-c3cncnc3)n(C3CC3)c2c1F [Example 2, 1-Cyclopropyl-6,7-difluoro-2-(pyrimidin-5-yl)-1H-benzo[d]imidazole] | 1000 to 10000 nM | 100 to 1000 nM
CNc1ncncc1-c1nc2ccc(C#N)cc2n1C1CC1 [Example 39, 1-Cyclopropyl-2-(4-(methylamino)pyrimidin-5-yl)-1H-benzo[d]imidazole-6-carbonitrile] | 100 to 1000 nM | 1 to 100 nM
CCn1c(-c2cncnc2C(F)(F)F)nc2cc(F)c(F)cc21 [Example 67, 1-Ethyl-5,6-difluoro-2-(4-(trifluoromethyl)pyrimidin-5-yl)-1H-benzo[d]imidazole] | > 10000 nM | 100 to 1000 nM
CC(=O)NCCc1ncncc1-c1nc2cc(F)c(F)cc2n1C1CC1 [Example 59, N-(2-(5-(1-Cyclopropyl-5,6-difluoro-1H-benzo[d]imidazol-2-yl)pyrimidin-4-yl)ethyl)acetamide] | > 10000 nM | 1000 to 10000 nM
Cc1ncncc1-c1nc2ccc(Cl)nc2n1C1CC1 [Example 48, 5-Chloro-3-cyclopropyl-2-(4-methylpyrimidin-5-yl)-3H-imidazo[4,5-b]pyridine] | 1000 to 10000 nM | 1 to 100 nM
N#Cc1ccc2nc(-c3cncnc3C(F)F)n(C3CC3)c2n1 [Example 63, 3-Cyclopropyl-2-(4-(difluoromethyl)pyrimidin-5-yl)-3H-imidazo[4,5-b]pyridine-5-carbonitrile] | 1000 to 10000 nM | 1 to 100 nM
N#Cc1ccc2nc(-c3cncnc3C(F)F)n(C3CC3)c2c1 [Example 54, 1-Cyclopropyl-2-(4-(difluoromethyl)pyrimidin-5-yl)-1H-benzo[d]imidazole-6-carbonitrile] | 1000 to 10000 nM | 1 to 100 nM
FC(F)(F)c1ncncc1-c1nc2ccc(Cl)nc2n1C1CC1 [Example 61, 5-Chloro-3-cyclopropyl-2-(4-(trifluoromethyl)pyrimidin-5-yl)-3H-imidazo[4,5-b]pyridine] | 1000 to 10000 nM | 1 to 100 nM
FC(F)(F)Oc1ccc2nc(-c3cncnc3)n(C3CC3)c2c1 [Example 42, 1-Cyclopropyl-2-(pyrimidin-5-yl)-6-(trifluoromethoxy)-1H-benzo[d]imidazole] | 1000 to 10000 nM | 100 to 1000 nM
CCc1ncncc1-c1nc2ccc(C#N)cc2n1C1CC1 [Example 8, 1-Cyclopropyl-2-(4-ethylpyrimidin-5-yl)-1H-benzo[d]imidazole-6-carbonitrile] | 1000 to 10000 nM | 1 to 100 nM
CC(C)c1ncncc1-c1nc2cc(F)c(F)cc2n1C1CC1 [Example 22, 1-Cyclopropyl-5,6-difluoro-2-(4-isopropylpyrimidin-5-yl)-1H-benzo[d]imidazole] | 100 to 1000 nM | 1 to 100 nM
Cc1ncnc(C)c1-c1nc2ccc(F)cc2n1C1CC1 [Example 29, 1-Cyclopropyl-2-(4,6-dimethylpyrimidin-5-yl)-6-fluoro-1H-benzo[d]imidazole] | > 10000 nM | > 10000 nM
